Several values for one entry are separate records, joined by “and”; a condition that tells them apart may be missing. Equal values may be shown once.
Tested on: adjuvant arthritis model rats
Assay: Rat adjuvant arthritis model: left hind limb (non-sensitized limb) volume
Format: in vivo, rat (male LEW rats)
Conditions: for Left hind limb volume, Mean: group mean n=5; for Left hind limb volume: individual animals
Method: Required amounts of GSSSG and indomethacin were weighed with an electronic balance, each ground well with a mortar, added to a solvent (0.5% methyl cellulose (MC) suspension), and suspended. The administration solution of GSSSG alone was prepared to have a concentration of 21.2 mg/mL (20 mg/mL on an anhydrous basis), and the administration solution of indomethacin alone was prepared to have a concentration of 0.06 mg/mL or 0.6 mg/mL. A combined administration solution was prepared by mixing a suspension prepared with GSSSG at 42.4 mg/mL (40 mg/mL on an anhydrous basis) with 0.12 mg/mL and 1.2 mg/mL indomethacin suspensions in equal amounts. The administration solution was prepared for 2 weeks at a time and stored under refrigeration and light shielding conditions until administration.
An appropriate amount of killed Mycobacterium tuberculosis (M. Tuberculosis H37Ra; BD) was ground in a mortar, and liquid paraffin was added thereto to prepare an adjuvant to 5 mg/mL. As experimental animals, 6-week-old male LEW rats were used. General condition observation and weight measurement were carried out upon arrival, and the presence or absence of abnormalities was confirmed.
The acclimation period was set to 7 days, and the general condition was observed once a day. On the last day of the acclimation period, left hind limb volume and body weight were measured to confirm that there were no abnormalities in body weight and general condition, and the animals were then used for a test.
On the last day of the acclimation period, the rats were sensitized with 50 μL of the prepared adjuvant under isoflurane inhalation anesthesia under the skin of the right hind limb plantar. In grouping, the rats were assigned to 6 groups (n=5) to ensure equal left hind limb volume and body weight.
The administration solution of indomethacin alone, the administration solution of GSSSG alone, and the combined administration solution were forcibly orally administered at a volume of 5 mL/kg for 14 days from the day of grouping. The dose was calculated based on the most recent body weight. The volume of the left hind limb (non-sensitized limb) was measured using a rat hind limb plantar edema volume measurement device (TK-101P; Natsume Seisakusho Co., Ltd.) on the last day of the acclimation period, the day of grouping, and twice a week after the day of grouping. The measurement was performed 5 times per rat per day, and an average value of 3 times excluding the highest and lowest values was taken as the volume.

[1] = GSSSG 100 mg/kg/day oral, day 0 (before sensitization)
[2] = GSSSG 100 mg/kg/day oral, day 9 (day of grouping, start of dosing)
[3] = GSSSG 100 mg/kg/day oral, day 13
[4] = GSSSG 100 mg/kg/day oral, day 16
[5] = GSSSG 100 mg/kg/day oral, day 20
[6] = GSSSG 100 mg/kg/day oral, day 23
[7] = Indomethacin 0.3 mg/kg/day oral, day 0 (before sensitization)
[8] = Indomethacin 0.3 mg/kg/day oral, day 9 (day of grouping, start of dosing)
[9] = Indomethacin 0.3 mg/kg/day oral, day 13
[10] = Indomethacin 0.3 mg/kg/day oral, day 16
[11] = Indomethacin 0.3 mg/kg/day oral, day 20
[12] = Indomethacin 0.3 mg/kg/day oral, day 23
[13] = Indomethacin 3 mg/kg/day oral, day 0 (before sensitization)
[14] = Indomethacin 3 mg/kg/day oral, day 9 (day of grouping, start of dosing)
[15] = Indomethacin 3 mg/kg/day oral, day 13
[16] = Indomethacin 3 mg/kg/day oral, day 16
[17] = Indomethacin 3 mg/kg/day oral, day 20
[18] = Indomethacin 3 mg/kg/day oral, day 23

N[C@@H](CCC(=O)N[C@@H](CSSSC[C@H](NC(=O)CC[C@H](N)C(=O)O)C(=O)NCC(=O)O)C(=O)NCC(=O)O)C(=O)O [GSSSG, glutathione trisulfide]
Left hind limb volume, Mean [1]: 1.31 mL
Left hind limb volume [1]: 1.21 mL and 1.39 mL (2×) and 1.29 mL (2×)
Left hind limb volume, Mean [2]: 1.49 mL
Left hind limb volume [2]: 1.29 mL and 1.52 mL and 1.58 mL (2×) and 1.51 mL
Left hind limb volume, Mean [3]: 1.99 mL
Left hind limb volume [3]: 1.45 mL and 2.35 mL and 2.08 mL and 2.06 mL and 2.00 mL
Left hind limb volume, Mean [4]: 2.26 mL
Left hind limb volume [4]: 1.41 mL and 2.64 mL (2×) and 2.28 mL and 2.35 mL
Left hind limb volume, Mean [5]: 2.39 mL
Left hind limb volume [5]: 1.72 mL and 2.82 mL and 2.58 mL and 2.53 mL and 2.31 mL
Left hind limb volume, Mean [6]: 2.54 mL
Left hind limb volume [6]: 1.67 mL and 3.22 mL and 2.77 mL and 2.69 mL and 2.34 mL
anti-inflammatory effect (GSSSG alone administration group (100 mg/kg oral, 14 days)): no anti-inflammatory effect was observed

COc1ccc2c(c1)c(CC(=O)O)c(C)n2C(=O)c1ccc(Cl)cc1 [Indomethacin, indomethacin]
Left hind limb volume, Mean [7]: 1.32 mL
Left hind limb volume [7]: 1.39 mL and 1.24 mL and 1.37 mL and 1.30 mL and 1.29 mL
Left hind limb volume, Mean [8]: 1.63 mL
Left hind limb volume [8]: 1.47 mL and 1.41 mL and 1.74 mL (2×) and 1.79 mL
Left hind limb volume, Mean [9]: 1.90 mL
Left hind limb volume [9]: 1.78 mL and 1.59 mL and 2.17 mL and 1.98 mL and 1.99 mL
Left hind limb volume, Mean [10]: 1.88 mL
Left hind limb volume [10]: 1.74 mL and 1.62 mL and 2.19 mL and 1.95 mL and 1.91 mL
Left hind limb volume, Mean [11]: 1.92 mL
Left hind limb volume [11]: 1.71 mL and 1.60 mL and 2.09 mL and 2.06 mL and 2.12 mL
Left hind limb volume, Mean [12]: 1.94 mL
Left hind limb volume [12]: 1.69 mL and 1.65 mL and 1.98 mL and 2.20 mL and 2.18 mL
Left hind limb volume, Mean [13]: 1.33 mL
Left hind limb volume [13]: 1.17 mL and 1.40 mL and 1.37 mL and 1.32 mL and 1.38 mL
Left hind limb volume, Mean [14]: 1.52 mL
Left hind limb volume [14]: 1.36 mL and 1.49 mL (2×) and 1.71 mL and 1.55 mL
Left hind limb volume, Mean [15]: 1.63 mL
Left hind limb volume [15]: 1.39 mL and 1.68 mL (2×) and 1.69 mL (2×)
Left hind limb volume, Mean [16]: 1.55 mL
Left hind limb volume [16]: 1.36 mL and 1.60 mL (2×) and 1.58 mL and 1.62 mL
Left hind limb volume, Mean [17]: 1.52 mL
Left hind limb volume [17]: 1.32 mL and 1.60 mL and 1.61 mL and 1.51 mL and 1.59 mL
Left hind limb volume, Mean [18]: 1.54 mL
Left hind limb volume [18]: 1.33 mL and 1.56 mL and 1.61 mL and 1.58 mL and 1.62 mL

From patent publication US20240082194A1, “PREVENTIVE OR THERAPEUTIC AGENT FOR INFLAMMATORY DISORDERS AND/OR PAIN DISORDERS” (Kyowa Pharma Chemical Co., Ltd., priority 2021, published 2024)
